The values that follow come from ChEMBL document CHEMBL5260820, “Discovery of novel steroidal histamine H3 receptor antagonists/inverse agonists” (Bioorg Med Chem Lett, 2017).

In experiment [1] the target is T1, Histamine H3 receptor (Homo sapiens, UniProt Q9Y5N1). Description: Antagonist activity at human histamine H3 receptor expressed in CHO-K1 cells assessed as inhibition of imetit-stimulation ERK1/2 phosphorylation by ELISA analysis. In kind it is cell-based.
Experiment [2] addresses T1, Histamine H3 receptor. The experiment is described as follows: Inverse agonist activity at recombinant human histamine H3 receptor expressed in CHO-K1 cells preincubated for 10 mins followed by [35S]GTPgammaS addition and measured after 60 mins by TopCount NXT based scintillation analysis. The experiment is classed as cell-based.
Experiment [3] is filed under the species Rattus norvegicus. The experiment is described as follows: Displacement of [3H]quinuclidinyl benzilate from Wistar rat cortex muscarinic AChR at 1 uM by liquid scintillation counting analysis relative to control. The experiment is classed as tissue-based.
The target of experiment [4] is T1, Histamine H3 receptor. The experiment is described as follows: Displacement of N-alpha-[methyl-3H]-methylhistamine dihydrochloride from recombinant human histamine H3 receptor expressed in CHO-K1 cells assessed as inhibition constant incubated for 30 mins by liquid scintillation analysis. The experiment is classed as cell-based.
Experiment [5] deals with Histamine H3 receptor (Rattus norvegicus, UniProt Q9QYN8). Description: Displacement of N-alpha-[methyl-3H]-methylhistamine dihydrochloride from Sprague-Dawley rat brain membrane histamine H3 receptor assessed as inhibition constant incubated for 30 mins by liquid scintillation counting analysis. In kind it is cell membranes.
Chain of Histamine H3 receptor (Rattus norvegicus, UniProt Q9QYN8) (Q9QYN8 whole entry): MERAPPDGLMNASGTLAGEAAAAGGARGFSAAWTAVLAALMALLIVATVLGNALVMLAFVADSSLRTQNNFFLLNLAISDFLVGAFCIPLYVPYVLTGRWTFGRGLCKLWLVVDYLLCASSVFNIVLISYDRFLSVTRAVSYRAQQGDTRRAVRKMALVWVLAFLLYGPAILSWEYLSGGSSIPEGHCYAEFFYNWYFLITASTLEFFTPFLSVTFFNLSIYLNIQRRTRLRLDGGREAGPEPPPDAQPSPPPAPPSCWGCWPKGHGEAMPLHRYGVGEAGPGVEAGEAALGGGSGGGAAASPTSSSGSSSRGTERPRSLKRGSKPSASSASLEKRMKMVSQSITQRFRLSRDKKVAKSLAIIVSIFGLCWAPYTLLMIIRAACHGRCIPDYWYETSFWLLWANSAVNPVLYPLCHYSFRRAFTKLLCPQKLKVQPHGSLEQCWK
For experiment [6], the species on record is Rattus norvegicus. The experiment is described as follows: Displacement of [3H]quinuclidinyl benzilate from Wistar rat cortex muscarinic AChR at 3 uM by liquid scintillation counting analysis relative to control. In kind it is tissue-based.
Experiment [7] in a line: Displacement of [3H]quinuclidinyl benzilate from Wistar rat cortex muscarinic AChR assessed as inhibition constant by liquid scintillation counting analysis. In kind it is tissue-based.
For experiment [8], the target named is T1, Histamine H3 receptor. The experiment is described as follows: Inverse agonist activity at recombinant human histamine H3 receptor expressed in CHO-K1 cells assessed as maximal efficacy preincubated for 10 mins followed by [35S]GTPgammaS addition and measured after 60 mins by TopCount NXT based scintillation analysis relative to control. The following applies: filed as inverse agonist, time 70.0 min. In kind it is cell-based.

Experiment [9] is described as follows: Selectivity index, ratio of Ki for displacement of [3H]quinuclidinyl benzilate from Wistar rat cortex muscarinic AChR to Ki for N-alpha-[methyl-3H]-methylhistamine dihydrochloride from Sprague-Dawley rat brain membrane histamine H3 receptor.

The structures appear in SMILES notation.

T1 sequence (Q9Y5N1 whole entry): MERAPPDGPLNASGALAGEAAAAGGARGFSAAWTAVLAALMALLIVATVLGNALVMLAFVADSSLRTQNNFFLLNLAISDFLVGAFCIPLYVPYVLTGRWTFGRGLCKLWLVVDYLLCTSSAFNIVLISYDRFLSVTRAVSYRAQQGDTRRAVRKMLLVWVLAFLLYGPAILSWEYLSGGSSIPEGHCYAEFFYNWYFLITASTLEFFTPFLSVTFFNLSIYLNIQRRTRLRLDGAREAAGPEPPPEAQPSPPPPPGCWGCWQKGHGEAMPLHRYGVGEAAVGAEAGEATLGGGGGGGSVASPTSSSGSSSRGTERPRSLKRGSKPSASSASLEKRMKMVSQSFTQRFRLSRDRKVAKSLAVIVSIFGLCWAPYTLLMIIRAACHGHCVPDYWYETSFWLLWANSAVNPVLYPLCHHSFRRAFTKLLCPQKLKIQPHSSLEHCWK

`C[C@]12CC[C@@H]3c4ccc(OCCCN5CCC(C(N)=O)CC5)cc4CC[C@H]3[C@@H]1CC[C@@H]2N1CCCC1`: the IC50 at Histamine H3 receptor [1] was 3 nM. At Histamine H3 receptor [2], the EC50 stood at 3.9 nM. This compound yielded an Activity in the experiment filed under Rattus norvegicus [3] of 37%. The Ki at Histamine H3 receptor [4] came out at 7 nM; on Histamine H3 receptor [5], 3.1 nM.
Consider `C[C@]12CC[C@@H]3c4ccc(OCc5ccc(Cl)cn5)cc4CC[C@H]3[C@@H]1CC[C@@H]2N1CCCC1`, for which the Activity in the experiment listed under Rattus norvegicus [6] was found to be 66%. Moreover, the Ki in experiment [7] is 705 nM; at Histamine H3 receptor [4], 1.6 nM; on Histamine H3 receptor [5], 49 nM.
With `C[C@]12CC[C@@H]3c4ccc(OCCCN5CCNC(=O)C5)cc4CC[C@H]3[C@@H]1CC[C@@H]2N1CCCC1`, the IC50 at Histamine H3 receptor [1] was found to be 17.4 nM. For the same compound, the EC50 on Histamine H3 receptor [2] is 0.6 nM. The same compound yielded an Activity in the experiment filed under Rattus norvegicus [3] of 73%. Further, the Ki on Histamine H3 receptor [4] came to 0.6 nM; at Histamine H3 receptor [5], 3.2 nM.
Turning to `C[C@@H]1Cc2cc(OCCCN3CCCC3)ccc2[C@H]2CC[C@]3(C)[C@@H](N4CCCC4)CC[C@H]3[C@H]12`, on Histamine H3 receptor [1], the IC50 came out at 12 nM. Also, on Histamine H3 receptor [2], the EC50 worked out at 0.2 nM. This compound displayed an Activity in the experiment listed under Rattus norvegicus [3] of 72%. In addition, the Ki at Histamine H3 receptor [4] is 1.2 nM; on Histamine H3 receptor [5], 18.3 nM.
Taken in the same sequence, the figures for `C[C@]12CC[C@@H]3c4ccc(OCCCN5CCCCCC5)cc4CC[C@H]3[C@@H]1CC[C@@H]2N1CCCC1` were 17.5 nM, 0.6 nM, 77%, 0.6 nM and 2.1 nM.
Taken in the same sequence, the figures for `C[C@]12CC[C@@H]3c4ccc(OCCCCN5CCCC5)cc4CC[C@H]3[C@@H]1CC[C@@H]2N1CCCC1` were 7.5 nM, 0.7 nM, 73%, 0.8 nM and 24.8 nM.
`C[C@]12CC[C@@H]3c4ccc(OCCCN5CCC(O)CC5)cc4CC[C@H]3[C@@H]1CC[C@@H]2N1CCCC1`: the 50% inhibitory concentration (IC50) at Histamine H3 receptor [1] was determined as 4.2 nM. The EC50 on Histamine H3 receptor [2] is 4.4 nM. For the same compound, the Activity in the experiment listed under Rattus norvegicus [3] amounted to 55%. Further, the Ki on Histamine H3 receptor [4] was 5 nM; at Histamine H3 receptor [5], 24.3 nM.
For the compound `S=C(NC1CCCCC1)N1CCC(c2cnc[nH]2)CC1` [THIOPERAMIDE], the Emax at Histamine H3 receptor [8] came to 50%. In addition, on Histamine H3 receptor [5], the Ki worked out at 23 nM.
The compound `C[C@]12CC[C@@H]3c4ccc(OCc5ccncc5)cc4CC[C@H]3[C@@H]1CC[C@@H]2N1CCCC1` came in with an Activity in the experiment listed under Rattus norvegicus [3] of 51%. The results for the Ki on Histamine H3 receptor [4] and on Histamine H3 receptor [5] were 0.87 nM and 7.3 nM, respectively.
For `CC1CCCN1CCCOc1ccc2c(c1)CC[C@@H]1[C@@H]2CC[C@]2(C)[C@@H](N3CCCC3)CC[C@@H]12` (mixture of isomers), the Ratio Ki in [9] amounted to 62. The IC50 at Histamine H3 receptor [1] was 12.1 nM. The EC50 on Histamine H3 receptor [2] stood at 0.4 nM. The Activity in the experiment filed under Rattus norvegicus [3] came to 69%. Further, the Ki in experiment [7] turned out to be 224 nM; at Histamine H3 receptor [4], 0.5 nM; at Histamine H3 receptor [5], 3.6 nM.
Turning to `C[C@]12CC[C@@H]3c4ccc(OCc5cccnc5)cc4CC[C@H]3[C@@H]1CC[C@@H]2N1CCCC1`, in the experiment filed under Rattus norvegicus [6], the Activity was 57%. In addition, the Ki in [7] was determined as 797 nM; on Histamine H3 receptor [4] it was 3 nM; on Histamine H3 receptor [5] it was 19 nM.
With `Clc1ccc(CCCOCCCN2CCCCC2)cc1` [PITOLISANT], the Emax at Histamine H3 receptor [8] was determined as 55%. In experiment [7], the Ki stood at 19 nM.
Consider `C[C@]12CC[C@@H]3c4ccc(OCCCN5CCC(O)C5)cc4CC[C@H]3[C@@H]1CC[C@@H]2N1CCCC1` (stereo partly specified), for which the IC50 at Histamine H3 receptor [1] amounted to 3.9 nM. The concentration for a half-maximal effect (EC50) at Histamine H3 receptor [2] was found to be 1.2 nM. The Activity in the experiment listed under Rattus norvegicus [3] stood at 64%. Further, the Ki is 5.2 nM at Histamine H3 receptor [4] and 16.8 nM at Histamine H3 receptor [5].
With `CC(=O)C1CCN(CCCOc2ccc3c(c2)CC[C@@H]2[C@@H]3CC[C@]3(C)[C@@H](N4CCCC4)CC[C@@H]23)CC1`, the IC50 on Histamine H3 receptor [1] amounted to 14.2 nM. Also, at Histamine H3 receptor [2], the EC50 worked out at 1.4 nM. Further, the Ki at Histamine H3 receptor [4] was 2.7 nM; at Histamine H3 receptor [5] it was 7.5 nM.
With `C[C@H]1CCCN1CCCOc1ccc2c(c1)CC[C@@H]1[C@@H]2CC[C@]2(C)[C@@H](N3CCCC3)CC[C@@H]12`, the Ratio Ki in experiment [9] amounted to 22. For the same compound, the IC50 at Histamine H3 receptor [1] amounted to 11.6 nM. For the same compound, the EC50 at Histamine H3 receptor [2] came out at 0.6 nM. Moreover, the Activity in the experiment filed under Rattus norvegicus [3] came out at 76%. In addition, the Ki in [7] is 122 nM; at Histamine H3 receptor [4], 0.3 nM; on Histamine H3 receptor [5], 5.6 nM.
Take `CC[C@]12CC[C@@H]3c4ccc(OCCCN5CCCC5)cc4CC[C@H]3[C@@H]1CC[C@@H]2N1CCCC1`: the IC50 at Histamine H3 receptor [1] came out at 16 nM. Moreover, the 50% effective concentration (EC50) on Histamine H3 receptor [2] amounted to 0.9 nM. The compound also yielded an Activity in the experiment listed under Rattus norvegicus [3] of 69%. In addition, the figures for the Ki on Histamine H3 receptor [4] and at Histamine H3 receptor [5] were 0.8 nM and 16.6 nM, respectively.
`C[C@]12CC[C@@H]3c4ccc(OCCN5CCCC5)cc4CC[C@H]3[C@@H]1CC[C@@H]2N1CCCC1`: the IC50 on Histamine H3 receptor [1] is 29 nM. At Histamine H3 receptor [2], the EC50 is 0.3 nM. In the experiment filed under Rattus norvegicus [3], this compound yielded an Activity of 69%. In addition, the Ki amounted to 1.9 nM at Histamine H3 receptor [4] and 23.1 nM at Histamine H3 receptor [5].
In turn, `C[C@]12CC[C@@H]3c4ccc(OCc5ccccc5)cc4CC[C@H]3[C@@H]1CC[C@@H]2N1CCCC1` displayed an Activity in the experiment listed under Rattus norvegicus [3] of 5%. Besides, the Ki on Histamine H3 receptor [4] is 216 nM.
`C[C@]12CC[C@H]3[C@@H](CC=C4C[C@@H](OCCCN5CCCC5)CC[C@@]43C)[C@@H]1CC[C@@H]2N1CCCC1` displayed an Activity in the experiment listed under Rattus norvegicus [6] of 92%. Also, the Ki is 4.3 nM at Histamine H3 receptor [4] and 10.2 nM at Histamine H3 receptor [5].
As to `CN1CCC[C@H]2[C@@H]3CC[C@H]4C[C@@H](OC(=O)CCN5CCCC5)CC[C@]4(C)[C@H]3CC[C@@]21C`, the Activity in the experiment filed under Rattus norvegicus [3] was determined as 44%. Moreover, the Ki is 10 nM at Histamine H3 receptor [4] and 39 nM at Histamine H3 receptor [5].
Turning to `C[C@@]12CC[C@@H]3c4ccc(OCCCN5CCCC5)cc4CC[C@H]3[C@@H]1CCC2N1CCCC1` (stereo partly specified), at Histamine H3 receptor [1], the IC50 amounted to 16 nM. Further, the concentration giving a half-maximal response (EC50) at Histamine H3 receptor [2] is 0.8 nM. The compound further had an Activity in the experiment listed under Rattus norvegicus [3] of 71%. For the same compound, the Ki on Histamine H3 receptor [4] is 1.4 nM; at Histamine H3 receptor [5], 6.1 nM.
